Measured values from patent publication US20230136600A1, “Method and device for screening antigen epitope polypeptide” (priority 2020, published 2023).

Tested on: Balb/c mice
Experiment: Polypeptide chip-based vaccine immunogenicity scoring system
Format: in vivo
Parameters: key to A2: whether the 95 percentile of the last sampling is increased compared with the end point: Y = rise; N = no rise
Settings: for Total single peptide: A*3 + B*2 + C*1; for A: 95 percentile grouping number score / B: Mouse performance score: total score = 5; for C1: #A timing-sequence response peptide fragment set / C2: #B vaccine specificity peptide fragment set / C3: Intersection of A and B / C4: Percentage of the intersection in set B / C: Timing-sequence response and specificity score: value of the whole mix
Procedure: Data distribution and characteristics thereof are analyzed based on a) and b), a polypeptide chip-based vaccine immunogenicity scoring system (referring to Table 7) is designed.
10 combinations are evaluated by the polypeptide chip-based vaccine immunogenicity scoring system. An evaluation method is consistent with that in Embodiment II. Evaluation results are show in the table below.
This embodiment is consistent with Embodiment II. Each combination is evaluated by the polypeptide chip-based vaccine immunogenicity scoring system. Evaluation results are show in the table below.

[1] = Embodiment III, polypeptide-KLH
[2] = Embodiment III, polypeptide-KLH, Mix1-10

Sequence | B1: D 0-D 14 95 percentile rise in the number of mice [1] | B2: D 0-D 21 95 percentile rise in the number of mice [1] | B3: D 14-D 21 95 percentile rise in the number of mice [1] | B4: D 21-D 28 95 percentile rise in the number of mice [1] | A1: difference between a highest median and a D 0 median (95 percentile) [2] | A2: whether the 95 percentile of the last sampling is increased compared with the end point [2] | Total single peptide [1] | A: 95 percentile grouping number score [1] | B: Mouse performance score [1] | C1: #A timing-sequence response peptide fragment set [1] | C2: #B vaccine specificity peptide fragment set [1] | C3: Intersection of A and B [1] | C4: Percentage of the intersection in set B [1] | C: Timing-sequence response and specificity score [1] | further results
IRGGDGKMKD (SARS-CoV-2) [SEQ ID NO:40] | 3 | 3 | 2 | 0 | 0.11 | N | 18.3 | 4.5 | 1.9 | 823 | 398 | 7 | 1.759 | 1 | –
YYKKDNSYF (SARS-CoV-2) [SEQ ID NO:25] | 2 | 3 | 2 | 1 | 0.06 | N | 9.1 | 1.5 | 1.8 | 823 | 398 | 7 | 1.759 | 1 | –
GRLQSLQTY (SARS-CoV-2) [SEQ ID NO:5] | 3 | 2 | 0 | 2 | 0.11 | Y | 18.9 | 5 | 1.7 | 133 | 431 | 1 | 0.232 | 0.5 | –
HGKEDLKF (SARS-CoV-2) [SEQ ID NO:23] | 3 | 3 | 0 | 1 | 0.20 | N | 19.4 | 5 | 1.7 | 1494 | 190 | 2 | 1.053 | 1 | –
MADSNGTIT (SARS-CoV-2) [SEQ ID NO:16] | 3 | 3 | 1 | 2 | 0.08 | Y | 15.2 | 3.5 | 2.1 | 511 | 364 | 1 | 0.275 | 0.5 | A2: whether the 95 percentile of the last sampling is increased compared with the end point (Embodiment II, Combination 2): Y; B1: D 0-D 14 95 percentile rise in the number of mice (Embodiment II, Combination 2): 5; B2: D 0-D 21 95 percentile rise in the number of mice (Embodiment II, Combination 2): 1; B3: D 14-D 21 95 percentile rise in the number of mice (Embodiment II, Combination 2): 0; B4: D 21-D 28 95 percentile rise in the number of mice (Embodiment II, Combination 2): 2; Total single peptide (Embodiment II, Combination 2): 19.9; A: 95 percentile grouping number score (Embodiment II, Combination 2): 5; B: Mouse performance score (Embodiment II, Combination 2): 2.2; A1: difference between a highest median and a D 0 median (95 percentile) (Embodiment II, mice immunized with Combination 2): 0.2
KKPASRELKVTF [SEQ ID NO:24] | 3 | 3 | 1 | 2 | 0.10 | Y | 18.2 | 4.5 | 2.1 | 145 | 529 | 1 | 0.189 | 0.5 | –
KRISNCVADY [SEQ ID NO:8] | 2 | 3 | 2 | 1 | 0.03 | N | 7.1 | 1 | 1.8 | 230 | 251 | 1 | 0.398 | 0.5 | –
PLQPELDSFKEE [SEQ ID NO:37] | 3 | 2 | 1 | 1 | 0.09 | Y | 15.9 | 4 | 1.7 | 230 | 251 | 1 | 0.398 | 0.5 | –
RGGSYTNDKAC (SARS-CoV-2) [SEQ ID NO:2] | 3 | 3 | 2 | 0 | 0.14 | N | 18.3 | 4.5 | 1.9 | 288 | 268 | 4 | 1.493 | 1 | –
ETSNSFDVLKSE [SEQ ID NO:30] | 2 | 2 | 2 | 1 | 0.02 | N | 6.7 | 1 | 1.6 | 230 | 251 | 1 | 0.398 | 0.5 | –
NSVAYSNNS (SARS-CoV-2) [SEQ ID NO:9] | 3 | 3 | 1 | 1 | 0.07 | N | 10.3 | 2 | 1.9 | 145 | 529 | 1 | 0.189 | 0.5 | –
VNKGEDIQLLKS [SEQ ID NO:27] | 3 | 3 | 1 | 0 | 0.14 | N | 17.4 | 4.5 | 1.7 | 133 | 431 | 1 | 0.232 | 0.5 | –
DNQDLNGNWY (SARS-CoV-2) [SEQ ID NO:31] | 2 | 3 | 2 | 0 | 0.93 | N | 14.2 | 3.5 | 1.6 | 511 | 364 | 1 | 0.275 | 0.5 | –
